Consider nine molecules from US20250277794A1, “SQSTM1 AND ITS USE IN CANCER THERAPY” (CENTRE NATIONAL DE LA RECHERCHE SCIENTIFIQUE, priority 2020, published 2025).

Holding throughout (type): cell-based, human
Experiment [1] has as its system HLA-B and PD-L1 expression in ShC A549 cells. In words: IFN/HLA-B/PD-L1 pathway expression (qRT-PCR, western blot, flow cytometry) in shControl A549 cells. The settings on record: for Induction of HLA-B and PD-L1 expression: ShC (SQSTM1 positive) A549 cells, 5-Aza 500 nM, 5 and 6 days, IFNG 50 ng/ml.
For experiment [2], the system named is 53BP1-positive foci in A549 cells. The experiment is described as follows: Global DNA damage measured by 53BP1 focus formation (immunofluorescence). The settings on record: Cisplatin 10 μM, FIG. 18. Here is the method:
At the indicated time, global DNA damage (A) was measured by 53BP1 focus formation (right immunofluorescence staining, 53BP1 red, Dapi, blue. Left, cell percentage with more than five spots).

Experiment [3] relates to ShSQSTM1 A549 cells. In words: Cell viability / Crystal Violet Cytotoxicity Assay, dose-response IC50, shSQSTM1 A549 cells. As for the experimental part: (§1) The majority of experiments presented in this study was performed with the human KRAS G12S/SKT11 Q37* co-mutated NSCLC A549 cells (American Type Tissue Collection, ATCC). All cells were maintained in Dulbecco's-modified minimum essential medium and Ham's F-12 medium (DMEM/F12 Glutamax; Life Technologies) supplemented with 10% fetal bovine serum (Dutcher), 2% Sodium Pyruvate, and 1% Penicillin-Streptomycin (Life technologies). To establish SQSTM1 knockdown stable cell lines, cells were transduced with small hairpin RNAs (shRNAs) lentiviruses that target the mRNA coding sequence of SQSTM1. Two distinct SQSTM1 shRNAs (Sigma, human, NM_003900, SQSTM1 #1, TRCN0000007237, and SQSTM1 #2, TRCN0000007236) were used to minimize sequence-dependent off-target effects. As controls, autophagy was inhibited at the initiation step by ATG5 (Sigma, human, NM_004849, ATG5 #1, TRCN0000151963) or ATG7 shRNA (Sigma, human, NM_006395, TRCN0000007584). For this purpose, the targeted and control (Sigma; SHC002V) shRNA lentivirus were transduced into the cells. ShRNA-mediated protein downregulation was controlled by qRT-PCR or immunoblotting with specific primers and antibodies (see for shRNA, primer, and antibody details the supplemental Tables 1 to 3).
(§2) For all experiments, cells were seeded in 6-well plates or 60 mm culture dishes and incubated until they reached 60-70% confluency.

Experiment [4] concerns shControl (ShC) A549 cells. The experiment is described as follows: Cell viability / Crystal Violet Cytotoxicity Assay, dose-response IC50, shControl A549 cells. As for the experimental part:
as §1, §2

The subject of experiment [5] is HLA-B and PD-L1 expression in ShSQSTM1 A549 cells. The experiment is described as follows: IFN/HLA-B/PD-L1 pathway expression (qRT-PCR, western blot, flow cytometry) in SQSTM1-depleted A549 cells. The settings on record: docetaxel 5 nM; for TBK1/STAT1 phosphorylation and expression of IFN, HLA-B and PD-L1 in SQSTM1-depleted cells: Cisplatin 10 μM, IFNG 50 ng/ml. As for the experimental part:
as §2
Quantitative real-time polymerase chain reaction analysis was performed on equal amounts of cDNA using the SYBR Green master mix and an Applied StepOne Plus PCR system (Life technologies). Relative gene expression changes were quantified using the 2 [−ΔΔCt] method and normalized to the housekeeping gene RPLP0 compared to the untreated cell samples.
Cell-surface expression of PD-L1 was examined using flow cytometry. […] Flow cytometry analysis was performed on a Cytoflex flow cytometer (10,000 cells, Cytoflex software). The MFI (PD-L1-isotype) is calculated as the MFI (PD-L1) is subtracted by the MFI (isotype control).

Where [6] appears, read: ShSQSTM1 A549, dose-response curves (Cell Treatments).
The mark [7] stands for this setting: Shc A549, dose-response curves (Cell Treatments).
Where [8] appears, read: Homo sapiens, ShSQSTM1 A549, dose-response curves (Cell Treatments).
Where [9] appears, read: Homo sapiens, Shc A549, dose-response curves (Cell Treatments).

Turning to `Nc1ncn([C@@H]2O[C@H](CO)[C@@H](O)[C@H]2O)c(=O)n1` [5-Azacytidine], the “Induction of HLA-B and PD-L1 expression” value in experiment [1] was “recapitulated the late expression of HLA-B and PD-L1”.

Regarding `N.N.[Cl][Pt][Cl]` [Cisplatin], in experiment [1], the “Induction of HLA-B and PD-L1 expression” value is “most effective drug for inducing HLA-B and PD-L1”. Besides, the “Start of formation of 53BP1-positive foci” value in experiment [2] was found to be 6 h. The “Time of peak value of 53BP1-positive foci” value in experiment [2] amounted to 16 h. Also, the IC50 came out at 47.7 µM in experiment [3] (setting [6]); 51 ± 5.3 µM in experiment [3] (ShSQSTM1 A549 cells, Cisplatin 5 days, FIG. 14); 24 µM in experiment [4] (setting [7]); 24 ± 1.4 µM in experiment [4] (control ShC A549 cells, Cisplatin 5 days, FIG. 14). In addition, in experiment [5], the “TBK1/STAT1 phosphorylation and expression of IFN, HLA-B and PD-L1 in SQSTM1-depleted cells” value is recorded as “did not up-regulate”.

With `CC(=O)O[C@@]12CO[C@@H]1C[C@H](O)[C@@]1(C)C(=O)[C@H](O)C3=C(C)[C@@H](OC(=O)[C@H](O)[C@@H](NC(=O)OC(C)(C)C)c4ccccc4)C[C@@](O)([C@@H](OC(=O)c4ccccc4)[C@H]21)C3(C)C` [Docetaxel], the “Growth arrest and DNMT1 downregulation” value in experiment [1] (Shc A549 cells, docetaxel 5 nM, qRT-PCR) is “did trigger growth arrest and DNMT1 downregulation”; in experiment [5] (qRT-PCR) it was “did trigger growth arrest and DNMT1 downregulation”. The IC50 in experiment [3] (setting [8]) was 0.0213 µM; in experiment [4] (setting [9]), 0.364 µM. Besides, the “TBK1/STAT1 phosphorylation and expression of IFN, HLA-B and PD-L1 in SQSTM1-depleted cells” value in experiment [5] is reported as “significantly rescued”.

For the molecule `COc1cccc2c1C(=O)c1c(O)c3c(c(O)c1C2=O)C[C@@](O)(C(=O)CO)C[C@@H]3O[C@H]1C[C@H](N)[C@H](O)[C@H](C)O1` [Doxorubicin], the “Induction of HLA-B and PD-L1 expression” value in experiment [1] is recorded as “recapitulated the late induction of this pathway”. In addition, the IC50 in experiment [3] (setting [8]) is 0.486 µM; in experiment [4] (setting [9]), 0.364 µM.

`O=C(NCCCNc1nc(Nc2cccc(CN3CCOCC3)c2)ncc1C1CC1)C1CCC1` [MRT 67307]: the “Block of Cisplatin ability to induce IFN/HLA B/PD-L1” value in experiment [1] (co-treatment with Cisplatin 10 μM, MRT 67307 10 μM, Ruxolitinib 5 μM, FIG. 26) was “sufficient to block”.

`O=C1[O][Pt]2([NH][C@@H]3CCCC[C@H]3[NH]2)[O]C1=O` [Oxaliplatin]: the “Induction of HLA-B and PD-L1 expression” value in experiment [1] was “recapitulated the late induction of this pathway”. The IC50 in experiment [3] (setting [6]) came out at 4.51 µM; in experiment [4] (setting [7]) it was 2.61 µM.

For `CC(=O)O[C@H]1C(=O)[C@@]2(C)[C@H]([C@H](OC(=O)c3ccccc3)[C@]3(O)C[C@H](OC(=O)[C@H](O)[C@@H](NC(=O)c4ccccc4)c4ccccc4)C(C)=C1C3(C)C)[C@]1(OC(C)=O)CO[C@@H]1C[C@@H]2O` [Paclitaxel], the figures for the IC50 in experiment [3] (setting [8]) and in experiment [4] (setting [9]) were 0.0037 µM and 0.0014 µM, respectively.

Take `CO/C1=C\C(C)=C\[C@@H](C)[C@@H](O)[C@@H](C)C/C(C)=C/C=C/[C@H](OC)[C@@H]([C@@H](C)[C@@H](O)[C@H](C)[C@@]2(O)C[C@@H](O)[C@H](C)[C@@H](C(C)C)O2)OC1=O` [bafA1]: the “HLA-B and PD-L1 expression on pharmacological autophagy inhibition” value in experiment [1] (A549 cells, data not shown) is “enhanced expression of HLA-B and PD-L1”.

B1: IFNG: IFNγ (C-60724 Promokine), positive control (protein, UniProt P01579 24-161, looked up)
Interferon gamma: QDPYVKEAENLKKYFNAGHSDVADNGTLFLGILKNWKEESDRKIMQSQIVSFYFKLFKNFKDDQSIQKSVETIKEDMNVKFFNSNKKKRDDFEKLTNYSVTDLNVQRKAIHELIQVMAELSPAAKTGKRKRSQMLFRG
On to B1, for which the “Induction of HLA-B and PD-L1 expression” value in experiment [1] is “induced STAT1 phosphorylation, HLA-B, and PD-L1 expression”. The “TBK1/STAT1 phosphorylation and expression of IFN, HLA-B and PD-L1 in SQSTM1-depleted cells” value in experiment [5] is “induced STAT1 phosphorylation, HLA-B, and PD-L1 expression”.
